The values that follow come from patent US6455588B1, “Compositions including modafinil for treatment of eating disorders and for appetite stimulation” (Cephalon, Inc., priority 1999, dated 2002).

For data set [1] the following is noted: 400 mg/day, clinical trials; cited from earlier work.
A further data set deals with orexin neurons. Nature of the data set: Double immunostaining for orexin and Fos, cell counts in the perifornical region of modafinil-treated mice. The class given is in vivo. Particulars: wild-type mice, 150 mg/kg i.p., 2 hours. The method, then: To determine that modafinil might act through orexin neurons, wild-type mice were injected at noon with modafinil (150 mg/kg i.p.), or vehicle, and sacrificed 2 hours later. Brains were removed, double immunostained for orexin and Fos (an indicator of neuronal activity), and cells were counted in the periforllical region. The number of orexin-immunoreactive neurons was the same in both groups (44-47 cells/section), but the modafinil-treated group had over three times as many Fos-immunoreactive neuronal nuclei (38 in the modafinil-treated mice vs. 11 in the vehicle controls; p=0.01). Within the population of orexin-immunoreactive neurons, modafinil induced a 9-fold increase in the number of Fos-immunoreactive cells (64% double labeled neurons in the modafinil group vs. 7% in the vehicle group, p=0.01) (FIG. 1). Thus, in the lateral hypothalamus, modafinil treatment is associated with activation of orexin neurons, and is thus useful as a treatment for eating disorders or for increasing appetite.

Data set [2] concerns neurons of the TMN and VLPO of the hypothalamus. Put plainly: Neuronal activity in hypothalamic nuclei (TMN, VLPO) after modafinil administration. The class given is in vivo, rats. From the text:
Activation of this histaminergic pathway by modafinil results in cortical activation and wakefulness. Thus, it appears that the physiologic basis for the wake-promoting actions of modafinil involves disinhibition of histaminergic neurons of the TMN by inhibitory actions on the VLPO. This represents the first pharmacologic agent known to produce wakefulness by activation of the TMN.

In the case of `NC(=O)C[S+]([O-])C(c1ccccc1)c1ccccc1` (stereo not drawn) [modafinil, 2-(benzhydrylsulfinyl) acetamide], in data set [1], the tolerability result is listed as “well tolerated”. This compound returned a Fos-immunoreactive neuronal nuclei in the data set on orexin neurons (perifornical region, vehicle 11, p=0.01) of 38. In addition, in the data set with orexin neurons (vehicle 7%, p=0.01), the “double labeled (orexin/Fos) neurons within orexin-immunoreactive neurons” value is recorded as 64%. Besides, the “increase in the number of Fos-immunoreactive cells within orexin-immunoreactive neurons” value with orexin neurons (versus vehicle) was determined as 9 fold. Further, the “activity of the neurons in the ventrolateropreoptic area (VLPO) of the hypothalamus” value in data set [2] (rats) is “reduced the activity”. In addition, in data set [2] (wakefulness-promoting doses), the “activity in the TMN of the posterior hypothalamus” value is recorded as “stimulation of activity”.
